Activity calls are given as the source filed them. The calls are words filed in the database; no cut-off is given here.
Species: Rattus norvegicus
Assay: Antagonist activity at SRIF in rat pituitary culture assessed as effect on growth hormone secretion
Format: functional

With CN1CC[C@]2(c3cccc4c3C[C@H]3N(C)CC[C@@]45[C@@H]4Nc6c([C@]78CCN(C)[C@H]7Nc7ccccc78)cccc6[C@]35CCN4C)c3ccccc3N[C@H]12 the Activity was “Active”.

— ChEMBL document CHEMBL1149722, “Alkaloids from Psychotria oleoides with activity on growth hormone release” (J Nat Prod, 1992)
